# In ChEMBL document CHEMBL4000175, “Biology-oriented drug synthesis (BIODS): In vitro β-glucuronidase inhibitory and in silico studies on 2-(2-methyl-5-nitro-1H-imidazol-1-yl)ethyl aryl carboxylate derivatives” (Eur J Med Chem, 2017):
# pIC50: −log10 of the molar value.
# Target: T1, Beta-glucuronidase (Bos taurus, UniProt A3KMY8)
# T1 sequence (A3KMY8 whole entry): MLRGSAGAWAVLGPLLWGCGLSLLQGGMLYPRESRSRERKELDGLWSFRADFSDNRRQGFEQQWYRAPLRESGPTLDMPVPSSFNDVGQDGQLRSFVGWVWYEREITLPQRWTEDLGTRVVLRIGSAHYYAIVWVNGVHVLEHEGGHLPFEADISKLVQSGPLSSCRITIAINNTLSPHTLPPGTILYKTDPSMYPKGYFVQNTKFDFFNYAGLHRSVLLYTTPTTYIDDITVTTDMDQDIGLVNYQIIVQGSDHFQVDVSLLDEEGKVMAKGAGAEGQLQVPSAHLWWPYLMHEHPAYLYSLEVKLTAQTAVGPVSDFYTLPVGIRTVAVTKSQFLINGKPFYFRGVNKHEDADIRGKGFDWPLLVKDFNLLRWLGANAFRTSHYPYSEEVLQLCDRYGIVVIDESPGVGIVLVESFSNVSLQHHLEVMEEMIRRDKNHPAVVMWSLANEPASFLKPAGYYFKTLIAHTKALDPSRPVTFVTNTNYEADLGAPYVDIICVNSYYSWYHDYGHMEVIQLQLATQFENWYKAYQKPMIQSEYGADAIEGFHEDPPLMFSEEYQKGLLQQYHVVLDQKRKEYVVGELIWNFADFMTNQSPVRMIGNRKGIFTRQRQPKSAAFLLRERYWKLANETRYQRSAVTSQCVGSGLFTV
# Assay: Inhibition of bovine liver beta glucuronidase using p-nitrophenyl-beta-D-glucuronide as substrate preincubated for 30 mins followed by substrate addition by spectrophotometric method
# Settings: not given; call rule not given here
row,IC50,SMILES
1,Not Active,Cc1ncc([N+](=O)[O-])n1CCOC(=O)c1ccc2ccccc2c1
2,Not Active,Cc1cccc(C(=O)OCCn2c([N+](=O)[O-])cnc2C)c1
3,Not Active,CCCCOc1ccc(C(=O)OCCn2c([N+](=O)[O-])cnc2C)cc1
4,Not Active,Cc1ncc([N+](=O)[O-])n1CCOC(=O)c1cccc2ccccc12

# Same assay, conditions: read-out: IC50
row,pIC50,SMILES
1,4.79,Cc1ncc([N+](=O)[O-])n1CCOC(=O)c1cccc(Cl)c1
2,5.09,Cc1ncc([N+](=O)[O-])n1CCOC(=O)c1cccc(F)c1
3,4.37,Cc1ncc([N+](=O)[O-])n1CCOC(=O)c1ccc(Br)cc1
4,4.35,Cc1ccccc1C(=O)OCCn1c([N+](=O)[O-])cnc1C
5,4.62,Cc1cc(C)cc(C(=O)OCCn2c([N+](=O)[O-])cnc2C)c1
6,4.22,COc1ccc(C(=O)OCCn2c([N+](=O)[O-])cnc2C)cc1
7,4.51,COc1ccc(/C=C/C(=O)OCCn2c([N+](=O)[O-])cnc2C)cc1
8,4.31,Cc1ncc([N+](=O)[O-])n1CCOC(=O)c1ccccc1Br
9,4.56,Cc1ncc([N+](=O)[O-])n1CCOC(=O)c1cccc([N+](=O)[O-])c1
10,4.49,Cc1ncc([N+](=O)[O-])n1CCOC(=O)c1cccnc1
11,5.68,Cc1ncc([N+](=O)[O-])n1CCOC(=O)c1cc2ccccc2[nH]1
12,5.20,Cc1ncc([N+](=O)[O-])n1CCOC(=O)c1ccc(F)cc1Br
13,5.21,Cc1ncc([N+](=O)[O-])n1CCOC(=O)c1cc(Cl)ccc1Cl
14,5.14,Cc1cc(C(=O)OCCn2c([N+](=O)[O-])cnc2C)ccc1[N+](=O)[O-]
15,4.45,Cc1ccc(C(=O)OCCn2c([N+](=O)[O-])cnc2C)cc1
16,5.05,Cc1ncc([N+](=O)[O-])n1CCOC(=O)c1ccc([N+](=O)[O-])cc1
17,4.71,Cc1ncc([N+](=O)[O-])n1CCOC(=O)c1ccccc1Cl
18,5.20,Clc1ccc(-c2nc3ccccc3[nH]2)cc1Cl
19,5.44,Cc1ncc([N+](=O)[O-])n1CCOC(=O)c1ccc(Cl)c(Cl)c1
20,4.91,Cc1ncc([N+](=O)[O-])n1CCOC(=O)c1ccc(F)cc1
21,5.08,Cc1ncc([N+](=O)[O-])n1CCOC(=O)c1ccc2ncsc2c1
22,4.22,COc1cc(OC)cc(C(=O)OCCn2c([N+](=O)[O-])cnc2C)c1

# Target: T2, Beta-glucuronidase (Bos taurus) (UniProt A3KMY8)
# T2 sequence (whole entry): T1 sequence (A3KMY8 whole entry)
# Assay: Potency index, ratio of D-saccharic acid 1,4-lactone IC50 to compound IC50 for bovine liver beta glucuronidase
# Settings: not given
row,Ratio IC50,SMILES
1,24,Cc1ncc([N+](=O)[O-])n1CCOC(=O)c1cc2ccccc2[nH]1
2,7,Cc1cc(C(=O)OCCn2c([N+](=O)[O-])cnc2C)ccc1[N+](=O)[O-]
3,15,Cc1ncc([N+](=O)[O-])n1CCOC(=O)c1ccc(Cl)c(Cl)c1
4,6,Cc1ncc([N+](=O)[O-])n1CCOC(=O)c1ccc2ncsc2c1
